The supplement of paper PMC11451515

Tested on: NOMO1
Test: cell viability relative to DMSO control; higher = less cytotoxic
Settings: 48 h
Summary of the method: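 Viability values are per-plate percentages of DMSO wells, with background from cell-free wells. Library compounds in DMSO were pin-dosed, in an 11-point threefold series from 47 μM to 0.79 nM, onto NOMO1 or SEM (500 cells/well) or P12-Ichikawa (1000 cells/well) leukemia cells in 1536-well plates (5 μl). Those cells had been adapted for at least four passages in each medium, and CellTiter-Glo One luminescence was read after 48 h at 37°C.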

[1] = HPLM + 10% dialyzed FBS, 0.000781 µM
[2] = HPLM + 10% dialyzed FBS, 0.00234 µM
[3] = HPLM + 10% dialyzed FBS, 0.00702 µM
[4] = HPLM + 10% dialyzed FBS, 0.0211 µM
[5] = HPLM + 10% dialyzed FBS, 0.0632 µM
[6] = HPLM + 10% dialyzed FBS, 0.19 µM
[7] = HPLM + 10% dialyzed FBS, 0.569 µM
[8] = HPLM + 10% dialyzed FBS, 1.71 µM
[9] = HPLM + 10% dialyzed FBS, 5.12 µM
[10] = HPLM + 10% dialyzed FBS, 15.4 µM
[11] = HPLM + 10% dialyzed FBS, 46.1 µM
[12] = RPMI 5 mM glucose + 10% FBS, 0.000781 µM
[13] = RPMI 5 mM glucose + 10% FBS, 0.00234 µM
[14] = RPMI 5 mM glucose + 10% FBS, 0.00702 µM
[15] = RPMI 5 mM glucose + 10% FBS, 0.0211 µM
[16] = RPMI 5 mM glucose + 10% FBS, 0.0632 µM
[17] = RPMI 5 mM glucose + 10% FBS, 0.19 µM
[18] = RPMI 5 mM glucose + 10% FBS, 0.569 µM
[19] = RPMI 5 mM glucose + 10% FBS, 1.71 µM
[20] = RPMI 5 mM glucose + 10% FBS, 5.12 µM
[21] = RPMI 5 mM glucose + 10% FBS, 15.4 µM
[22] = RPMI 5 mM glucose + 10% FBS, 46.1 µM
[23] = RPMI 5 mM glucose + 10% dialyzed FBS, 0.000781 µM
[24] = RPMI 5 mM glucose + 10% dialyzed FBS, 0.00234 µM
[25] = RPMI 5 mM glucose + 10% dialyzed FBS, 0.00702 µM
[26] = RPMI 5 mM glucose + 10% dialyzed FBS, 0.0211 µM
[27] = RPMI 5 mM glucose + 10% dialyzed FBS, 0.0632 µM
[28] = RPMI 5 mM glucose + 10% dialyzed FBS, 0.19 µM
[29] = RPMI 5 mM glucose + 10% dialyzed FBS, 0.569 µM
[30] = RPMI 5 mM glucose + 10% dialyzed FBS, 1.71 µM
[31] = RPMI 5 mM glucose + 10% dialyzed FBS, 5.12 µM
[32] = RPMI 5 mM glucose + 10% dialyzed FBS, 15.4 µM
[33] = RPMI 5 mM glucose + 10% dialyzed FBS, 46.1 µM

SMILES | cell viability [1] | cell viability [2] | cell viability [3] | cell viability [4] | cell viability [5] | cell viability [6] | cell viability [7] | cell viability [8] | cell viability [9] | cell viability [10] | cell viability [11] | cell viability [12] | cell viability [13] | cell viability [14] | cell viability [15] | cell viability [16] | cell viability [17] | cell viability [18] | cell viability [19] | cell viability [20] | cell viability [21] | cell viability [22] | cell viability [23] | cell viability [24] | cell viability [25] | cell viability [26] | cell viability [27] | cell viability [28] | cell viability [29] | cell viability [30] | cell viability [31] | cell viability [32] | cell viability [33]
CNC(=O)Nc1ccc(-c2nc(N3CC4CCC(C3)O4)c3cnn(C4CCC5(CC4)OCCO5)c3n2)cc1 | 101% | 88.6% | 97.2% | 86.1% | 73% | 75.9% | 70.4% | 63.8% | 63.3% | 57.2% | 51.6% | 108% | 115% | 118% | 99.3% | 91.4% | 81.1% | 74.7% | 73% | 72.2% | 65.1% | 69.8% | 105% | 101% | 84.3% | 79.3% | 77.6% | 68.5% | 71.5% | 62% | 62% | 55.1% | 52.4%
CCN1CCCC1CNC(=O)c1cc([S+](N)(=O)[O-])ccc1OC (stereo unspecified) | 104% | 117% | 127% | 127% | 142% | 128% | 111% | 117% | 140% | 121% | 78% | 120% | 113% | 102% | 103% | 123% | 106% | 118% | 120% | 119% | 117% | 105% | 111% | 126% | 106% | 125% | 115% | 139% | 131% | 134% | 122% | 126% | 129%
COc1cc(C)c(Sc2cnc(NC(=O)c3ccc(CNC(C)C(C)C)cc3)s2)cc1C(=O)N1CCN(C(C)=O)CC1 (stereo unspecified) |  |  |  |  |  |  |  |  |  |  |  | 117% | 119% | 128% | 131% | 117% | 126% | 134% | 108% | 105% | 107% | 126% |  |  |  |  |  |  |  |  |  |  | 
CO/N=C(\C(=O)N[C@@H]1C(=O)N2C(C(=O)OCOC(=O)C(C)(C)C)=C(/C=C\c3scnc3C)CS[C@H]12)c1csc(N)n1 | 81.6% | 111% | 103% | 93.3% | 102% | 87.7% | 109% | 102% | 106% | 81.7% | 42.9% | 81% | 106% | 92.8% | 98.9% | 104% | 104% | 99.4% | 92.5% | 95% | 84.6% | 58.2% | 72.8% | 83.9% | 88% | 80.9% | 91.1% | 83.9% | 96.2% | 99.1% | 88% | 70% | 48.6%
N#C[C@H](O[C@@H]1O[C@H](CO[C@@H]2O[C@H](CO)[C@@H](O)[C@H](O)[C@H]2O)[C@@H](O)[C@H](O)[C@H]1O)c1ccccc1 | 108% | 96.9% | 120% | 115% | 99.1% | 102% | 100% | 96.6% | 103% | 95.9% | 19.5% | 90.5% | 117% | 104% | 89.4% | 97.3% | 93.5% | 96.3% | 84.5% | 93.4% | 85.1% | 16% | 106% | 110% | 103% | 115% | 109% | 96.2% | 101% | 97.6% | 98.1% | 88.8% | 9.62%
NC(=O)Nc1cc(-c2cccc(F)c2)sc1C(=O)N[C@H]1CCCNC1 | 125% | 102% | 141% | 107% | 147% | 92.1% | 59.2% | 42% | 24.7% | 26.9% | 26.2% |  |  |  |  |  |  |  |  |  |  |  | 121% | 122% | 136% | 134% | 136% | 139% | 81.7% | 33.2% | 24.4% | 21.6% | 23.4%
COc1cc(CNC(=O)CCCC/C=C/C(C)C)ccc1O | 111% | 116% | 113% | 123% | 114% | 112% | 71.5% | 77% | 79.1% | 60.9% | 47.2% | 101% | 99.6% | 95% | 115% | 104% | 114% | 90.6% | 45.9% | 36.6% | 41.1% | 36.4% | 102% | 97.8% | 103% | 98.5% | 106% | 101% | 99.5% | 55.3% | 52% | 50.4% | 59.7%
C#CCN[C@@H]1CCc2ccccc21.CS(=O)(=O)O | 107% | 93.4% | 108% | 109% | 91.7% | 90.3% | 96% | 82.6% | 93.9% | 71.3% | 43.2% | 89.6% | 97% | 92.7% | 87.9% | 94% | 88.1% | 91.1% | 84.2% | 84.2% | 96.5% | 67.2% | 86.1% | 99.9% | 105% | 99.8% | 106% | 101% | 93.7% | 107% | 85.1% | 90.6% | 81.8%
